Tested on: three MycP1 variants
Format: biochemical, M. tuberculosis, M. thermoresistible, M. smegmatis

## HAlaValLysAlaAlaB(OH)2 [Compound 1]
  inhibition (in words): poorer inhibition than compound 2
